Test results reported in patent EP4603105A1, “PHARMACEUTICAL COMPOSITION CONTAINING CYCLIC COMPOUND HAVING SELECTIVE KRAS INHIBITORY EFFECT AGAINST HRAS AND NRAS” (CHUGAI SEIYAKU KABUSHIKI KAISHA, priority 2022, dated 2024).
Read-outs that look alike come from different tables or passages of the source.

Columns and labels:
HRAS wild-type protein = HRAS wild-type protein (Homo sapiens, UniProt P01112); assay: Binding to HRAS by surface plasmon resonance (SPR), KD and KD ratio to KRAS
Method in brief: (§1)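 Single-cycle kinetics on GDP-loaded biotin-Avi RAS captured to ~100–300 RU; 75 s ascending injections, 100 µL/min, 30°C. HBS pH 7.4 + 10 mM MgCl2/10 µM GDP/4% DMSO. 1:1 fit, KD.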

[1] = tested on: human lung cancer strain NCI-H441; assay: NCI-H441 cell proliferation inhibitory activity (CellTiter-Glo, 4 days); assay type: cell-based; details: read-out: NCl-H441 IC50
Method in brief: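 Proliferation was scored by […] measured after the reagent was added to cultures kept at 37°C in 5% carbon dioxide.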

[2] = target: GDP-bound KRAS wild-type protein (Homo sapiens, UniProt P01116); assay: Binding to KRAS by surface plasmon resonance (SPR), dissociation constant KD
GDP-bound KRAS wild-type protein, sequence (P01116 1-188 isoform P01116-2): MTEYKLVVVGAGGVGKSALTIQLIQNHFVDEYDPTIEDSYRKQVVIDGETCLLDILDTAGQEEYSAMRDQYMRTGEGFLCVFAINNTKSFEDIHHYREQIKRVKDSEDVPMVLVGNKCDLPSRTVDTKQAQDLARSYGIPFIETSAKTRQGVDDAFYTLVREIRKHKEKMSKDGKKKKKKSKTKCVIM
Method in brief: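 Affinity is measured by surface plasmon resonance at 30°C against captured, GDP-loaded RAS carrying a biotinylated Avi tag. Compounds are titrated by single-cycle kinetics, and KD comes from a 1:1 fit.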

[3] = target: GDP-bound NRAS wild-type protein (Homo sapiens, UniProt P01111); assay: Binding to NRAS by surface plasmon resonance (SPR), KD and KD ratio to KRAS
GDP-bound NRAS wild-type protein, sequence (P01111 whole entry): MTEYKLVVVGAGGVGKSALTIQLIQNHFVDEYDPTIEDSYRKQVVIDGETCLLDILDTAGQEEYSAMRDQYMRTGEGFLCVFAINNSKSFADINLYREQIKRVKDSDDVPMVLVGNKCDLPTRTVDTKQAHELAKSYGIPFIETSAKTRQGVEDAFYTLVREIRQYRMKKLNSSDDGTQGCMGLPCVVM
Method in brief: as §1

[4] = ratio of KD for HRAS wild-type protein to KD for KRAS
[5] = ratio of KD for GDP-bound NRAS wild-type protein to KD for KRAS
[6] = ratio of KD with respect to HRAS wild-type protein to KD with respect to KRAS
[7] = 50% proliferation inhibitory concentration, four days
[8] = Single Cycle Kinetics, 1:1 binding model
[9] = ratio of KD with respect to GDP-bound NRAS wild-type protein to KD with respect to KRAS

HRAS wild-type protein, sequence (P01112 whole entry): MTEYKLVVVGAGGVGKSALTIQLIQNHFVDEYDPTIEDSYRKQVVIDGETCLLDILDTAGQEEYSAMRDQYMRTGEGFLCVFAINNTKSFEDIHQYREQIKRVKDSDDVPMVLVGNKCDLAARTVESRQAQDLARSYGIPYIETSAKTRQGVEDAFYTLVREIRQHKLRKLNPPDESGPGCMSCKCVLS

Row | SMILES | HRAS /KRAS (HRAS wild-type protein; [4]) | IC50 ([1]; NCI-H441 cells, 4 days) [nM] | Kd ([2]; Single Cycle Kinetics) [nM] | NRAS /KRAS [3, 5] | Kd ([2]; 1:1 binding model) [nM] | HRAS /KRAS (HRAS wild-type protein; [6]) | IC50 [1, 7] [nM] | Kd [2, 8] [nM] | NRAS /KRAS [3, 9]
1 | CCC[C@H]1C(=O)N[C@@H]([C@@H](C)CC)C(=O)N(C2CC2)CC(=O)N(C)[C@H]2C/C(F)=C\CCN(C2=O)[C@@H](Cc2ccc(C(F)(F)F)cc2)C(=O)N(C)CC(=O)N[C@@H](CCc2cc(F)c(C(F)(F)F)c(F)c2)C(=O)N2C[C@H](OCC)C[C@H]2C(=O)NC2(CCC2)C(=O)N(C)[C@@H](C2CCCC2)C(=O)N(C)[C@H](C(=O)N(C)C)CC(=O)N1C [PP3518] | B (a compound having 3 or more and less than 10 is denoted as B) | 19.2 | 0.64 | B (a compound having 3 or more and less than 10 is denoted as B) | – | – | – | – | –
2 | CCOC[C@H]1C(=O)N[C@@H]([C@@H](C)CC)C(=O)N(C)CC(=O)N(C)[C@H]2C/C=C\CCN(C2=O)[C@@H](Cc2ccc(C(F)(F)F)cc2)C(=O)N(C)CC(=O)N[C@@H](CCc2ccc(Cl)c(Cl)c2)C(=O)N2C[C@H](OCC)C[C@H]2C(=O)NC2(CC(C)(C)C2)C(=O)N(C)[C@@H](CC(C)(C)C)C(=O)N(C)[C@H](C(=O)N(C)C)CC(=O)N1C [PP2740] | A (a compound having 10 or more and less than 20 is denoted as A) | 24.2 | – | AA (a compound having 20 or more is denoted as AA) | 0.17 | – | – | – | –
3 | CCCC[C@H]1C(=O)N[C@@H]([C@@H](C)CC)C(=O)N2CCC[C@H]2C(=O)N(C)[C@H]2C/C=C\CCN(C2=O)[C@@H](Cc2ccc(C(F)(F)F)cc2)C(=O)N(C)CC(=O)N[C@@H](CCc2ccc(C(F)(F)F)c(OC)c2)C(=O)N2C[C@H](OCC)C[C@H]2C(=O)OC2(CCC2)C(=O)N(C)[C@@H](C2CCCC2)C(=O)N(C)[C@H](C(=O)N(C)C)CC(=O)N1C [PP3365] | A (a compound having 10 or more and less than 20 is denoted as A) | 19.4 | 0.65 | AA (a compound having 20 or more is denoted as AA) | – | – | – | – | –
4 | CC[C@H](C)[C@@H]1NC(=O)[C@H](CC(C)C)N(C)C(=O)C[C@@H](C(=O)N(C)C)N(C)C(=O)[C@H](C2CCCC2)N(C)C(=O)C2(CCCC2)NC(=O)[C@@H]2CCN2C(=O)[C@H](CCc2cc(F)c(C(F)(F)F)c(F)c2)NC(=O)CN(C)C(=O)[C@H](Cc2ccc(C(F)(F)F)cc2)N2CC/C=C(/F)C[C@@H](C2=O)N(C)C(=O)CN(C)C1=O [PP3521] | B (a compound having 3 or more and less than 10 is denoted as B) | 36.6 | 2.3 | B (a compound having 3 or more and less than 10 is denoted as B) | – | – | – | – | –
5 | CCO[C@@H]1C[C@H]2C(=O)NC3(CCCC3)C(=O)N(C)[C@@H](C3CCCC3)C(=O)N(C)[C@H](C(=O)N(C)C)CC(=O)N(C)[C@@H](CC)C(=O)N[C@@H]([C@@H](C)CC)C(=O)N(C)CC(=O)N(C)[C@H]3C[C@@H](C)[C@@H](C)CN(C3=O)[C@@H](Cc3ccc(C(F)(F)F)cc3)C(=O)N(C)CC(=O)N[C@@H](CCc3cc(F)c(C(F)(F)F)c(F)c3)C(=O)N2C1 [PP1352] | – | – | – | – | – | B (a compound having 3 or more and less than 10 is denoted as B) | 4.6 | 0.024 | A (a compound having 10 or more and less than 20 is denoted as A)
6 | CCC[C@H]1C(=O)N[C@@H]([C@@H](C)CC)C(=O)N2CCCCC[C@H]2C(=O)N(C)[C@H]2C/C=C\CCN(C2=O)[C@@H](Cc2ccc(C)cc2)C(=O)N(C)CC(=O)N[C@@H](CCc2ccc(C(F)(F)F)c(OC)c2)C(=O)N2C[C@H](OCC)C[C@H]2C(=O)N(C)C2(CCC2)C(=O)N(C)[C@@H](C2CCCC2)C(=O)N(C)[C@H](C(=O)N(C)C)CC(=O)N1C [PP3279] | B (a compound having 3 or more and less than 10 is denoted as B) | 144 | 4.5 | A (a compound having 10 or more and less than 20 is denoted as A) | – | – | – | – | –
7 | CCO[C@@H]1C[C@H]2C(=O)OC3(CCC3)C(=O)N(C)[C@@H](C3CCCC3)C(=O)N(C)[C@H](C(=O)N(C)C)CC(=O)N(C)[C@@H]([C@H](C)OC)C(=O)N[C@@H]([C@@H](C)CC)C(=O)N(C)CC(=O)N(C)[C@H]3C/C=C\CCN(C3=O)[C@@H](Cc3ccc(C)cc3)C(=O)N(C)CC(=O)N[C@@H](CCc3ccc(C(F)(F)F)c(OC)c3)C(=O)N2C1 [PP3397] | B (a compound having 3 or more and less than 10 is denoted as B) | 4.3 | 0.28 | A (a compound having 10 or more and less than 20 is denoted as A) | – | – | – | – | –
8 | CCO[C@@H]1C[C@H]2C(=O)NC3(CCC3)C(=O)N(C)[C@@H](C3CCCC3)C(=O)N(C)[C@H](C)CC(=O)N(C)[C@@H](CC(C)C)C(=O)N[C@@H]([C@@H](C)CC)C(=O)N(C)CC(=O)N(C)[C@H]3C/C=C\CCN(C3=O)[C@@H](Cc3ccc(C)cc3)C(=O)N(C)CC(=O)N[C@@H](CCc3cc(F)c(C(F)(F)F)c(F)c3)C(=O)N2C1 [PP1417] | – | – | – | – | – | B (a compound having 3 or more and less than 10 is denoted as B) | 18.4 | 0.26 | B (a compound having 3 or more and less than 10 is denoted as B)
9 | CCO[C@@H]1C[C@H]2C(=O)NC3(CCC3)C(=O)N(C)[C@@H](C(CC)CC)C(=O)N(C)[C@H](C(=O)N(C)C)CC(=O)N(C)[C@@H](CC(C)C)C(=O)N[C@@H]([C@@H](C)CC)C(=O)N(C)CC(=O)N(C)[C@H]3C/C=C\CCN(C3=O)[C@@H](Cc3ccc(C(F)(F)F)cc3)C(=O)N(C)CC(=O)N[C@@H](CCc3cc(F)c(C(F)(F)F)c(F)c3)C(=O)N2C1 [PP1201] | – | – | – | – | – | A (a compound having 10 or more and less than 20 is denoted as A) | 9.7 | 0.17 | AA (a compound having 20 or more is denoted as AA)
10 | CCO[C@@H]1C[C@H]2C(=O)OC3(CCC3)C(=O)N(C)[C@@H](C3CCCC3)C(=O)N(C)[C@H](C(=O)N(C)C)CC(=O)N(C)[C@@H](CC(C)C)C(=O)N[C@@H]([C@@H](C)CC)C(=O)N3CCC[C@H]3C(=O)N(C)[C@H]3C/C=C\CCN(C3=O)[C@@H](Cc3ccc(C)cc3)C(=O)N(C)CC(=O)N[C@@H](CCc3ccc(C(F)(F)F)c(OC)c3)C(=O)N2C1 [PP3380] | B (a compound having 3 or more and less than 10 is denoted as B) | 28.9 | 1.3 | A (a compound having 10 or more and less than 20 is denoted as A) | – | – | – | – | –
11 | CCC[C@H]1C(=O)N[C@@H]([C@@H](C)CC)C(=O)N2CCC[C@H]2C(=O)N(C)[C@H]2C/C(F)=C\CCN(C2=O)[C@@H](Cc2ccc(C)cc2)C(=O)N(C)CC(=O)N[C@@H](CCc2cc(F)c(C(F)(F)F)c(F)c2)C(=O)N2C[C@H](OCC)C[C@H]2C(=O)NC2(CCC2)C(=O)N(C)[C@@H](C2CCCC2)C(=O)N(C)[C@H](C(=O)N(C)C)CC(=O)N1C [PP3520] | B (a compound having 3 or more and less than 10 is denoted as B) | 91.9 | 1.2 | B (a compound having 3 or more and less than 10 is denoted as B) | – | – | – | – | –
12 | CCO[C@@H]1C[C@H]2C(=O)NC3(CCC3)C(=O)N(C)[C@@H](C3CCCC3)C(=O)N(C)[C@H](C(=O)N(C)C)CC(=O)N(C)[C@@H](Cc3ccccc3C#N)C(=O)N[C@@H]([C@@H](C)CC)C(=O)N(C)CC(=O)N(C)[C@H]3CCCCCN(C3=O)[C@@H](Cc3ccc(C(F)(F)F)cc3)C(=O)N(C)CC(=O)N[C@@H](CCc3cc(F)c(C(F)(F)F)c(F)c3)C(=O)N2C1 [PP1171] | – | – | – | – | – | B (a compound having 3 or more and less than 10 is denoted as B) | 118 | 0.69 | B (a compound having 3 or more and less than 10 is denoted as B)
13 | CCCN(C)C(=O)[C@@H]1CC(=O)N(C)[C@@H](CC(C)C)C(=O)N[C@@H]([C@@H](C)CC)C(=O)N(C)CC(=O)N(C)[C@H]2C/C=C\CCN(C2=O)[C@@H](Cc2ccc(C(F)(F)F)cc2)C(=O)N(C)CC(=O)N[C@@H](CCc2cc(F)c(C(F)(F)F)c(F)c2)C(=O)N2C[C@H](OCC)C[C@H]2C(=O)N[C@]2(C[C@@H](OC)C2)C(=O)N(C)[C@@H](C2CCCC2)C(=O)N1C [PP3352] | B (a compound having 3 or more and less than 10 is denoted as B) | 12.4 | 0.28 | A (a compound having 10 or more and less than 20 is denoted as A) | – | – | – | – | –
14 | C#CCN1CC(=O)N(C)[C@H]2C/C=C\CCN(C2=O)[C@@H](Cc2ccc(C(F)F)cc2)C(=O)N(C)CC(=O)N[C@@H](CCc2cc(F)c(C(F)(F)F)c(F)c2)C(=O)N2C[C@H](OC(C)C)C[C@H]2C(=O)N(C)C2(CCC2)C(=O)N(C)[C@@H](C(CC)CC)C(=O)N(C)[C@H](C(=O)N(C)C)CC(=O)N(C)[C@@H](COCCC)C(=O)N[C@@H]([C@@H](C)CC)C1=O [PP3490] | A (a compound having 10 or more and less than 20 is denoted as A) | 23.7 | 0.3 | A (a compound having 10 or more and less than 20 is denoted as A) | – | – | – | – | –
15 | CCC[C@@H]1NC(=O)C[C@@H](C(=O)N(C)C)N(C)C(=O)[C@H](C2CCCC2)N(C)C(=O)C2(CC(C)(C)C2)NC(=O)[C@@H]2C[C@@H](OCC)CN2C(=O)[C@H](CCc2ccc(C(F)(F)F)c(Cl)c2)NC(=O)CN(C)C(=O)[C@H](Cc2ccc(C(F)(F)F)cc2)N2CC/C=C\C[C@@H](C2=O)N(C)C(=O)CN(C)C(=O)[C@H]([C@@H](C)CC)NC1=O [PP3454] | A (a compound having 10 or more and less than 20 is denoted as A) | 26.2 | 0.3 | A (a compound having 10 or more and less than 20 is denoted as A) | – | – | – | – | –
